# According to patent US20230165831A1, “METHOD AND COMPOSITION FOR RENDERING CANCER CELLS SUSCEPTIBLE TO TREATMENT BY TARGETED ONCOGENETIC DRIVERS” (IMPACT BIOLIFE SCIENCE, INC., priority 2021, published 2023):
# Where two headings read alike, the source gives them in different places.
# Legend:
# [1] = test system: Liver cancer line SK-HEP-1 cells;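 note: luminescent signal read after 72 h compound exposure at 37 °C under 5% CO2, with medium-only wells serving as blank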
# Procedure: (§1) To measure the cell inhibition effect of compounds and synergy effect of test articles on ten (10) cell lines using standard CTG assay.
# (§2) 7) Using complete cell medium, adjust the volume of the suspension to achieve a cell concentration.
# (§3) b. A549, T47D, SK-OV-3, MKN45, SK-Hep-1, HT-29, Capan-1, 786-O and LNCaP cell line, for compounds and vehicle groups, the seeding density of cell lines is 3000 cells/80 µL per well. For blank groups, add 100 µL medium. For PBS groups, add 100 µL PBS.
# (§4) 8) Incubate the U87MG, A549, T47D, SK-OV-3, MKN45, SK-Hep-1, HT-29, Capan-1, 786-O and LNCaP cells overnight at 37° C./5% CO2.
# (§5) Solid compound of cis-platinum was solubilized in PBS to a stock solution of 3.333 mM.
# (§6) Final volume is 100 µL per well at this point.
# (§7) 5) Incubate the plates at 37° C./5% CO2 for 72 hours.
# (§8) 1) Incubate the plates at room temperature and away from light for 30 minutes.
# (§9) 3) Add 100 µL /well of CellTiter-Glo® Reagent in each well. Avoid light.
# (§10) 4) Mix contents for 2 minutes on an orbital shaker.
# (§11) 5) Incubate plate at room temperature for 10 minutes to stabilize the luminescent signal.
# 6) Read plates in Envision.
# [2] = test system: pancreatic cancer line Capan-1 cells; test: CTG (CellTiter-Glo) cell viability assay, 6×6 combo matrix, 72 h, Capan-1; format: cell-based; details: for Relatively Cell inhibition of vehicle control(%): Capan-1
# In short: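 Capan-1 cells were seeded at 3000 cells per well and incubated overnight at 37 °C/5% CO2. They were then treated with compounds in a 6×6 combination matrix for 72 h at 37 °C/5% CO2. Viability was read by CellTiter-Glo luminescence to assess inhibition and synergy.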
# [3] = test system: lung adenocarcinoma line A549 cells; test: CTG (CellTiter-Glo) cell viability assay, 6×6 combo matrix, 72 h, A549; details: A549;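 note: luminescent ATP readout with CellTiter-Glo after compound exposure, used to assess growth inhibition and combination synergy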
# Procedure: as §1, §2
# A549, T47D, SK-OV-3, MKN45, SK-Hep-1, HT-29, Capan-1, 786-O and LNCaP cell line, for compounds and vehicle groups, the seeding density of cell lines is 3000 cells/80 µL per well. For blank groups, add 100 µL medium. For PBS groups, add 100 µL PBS.
# as §4, §5, §6, §7, §8, §9, §10, §11
# 6) Read plates in Envision.
# [4] = test system: prostate adenocarcinoma line LNCap cells; test: CTG (CellTiter-Glo) cell viability assay, 6×6 combo matrix, 72 h, LNCaP; details: Homo sapiens, LNCaP;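 note: luminescence signal read after adding CellTiter-Glo reagent, with cells exposed to compounds for 72 h at 37 °C under 5% CO2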
# [5] = test system: kidney cancer line 786-O cells; test: CTG (CellTiter-Glo) cell viability assay, 6×6 combo matrix, 72 h, 786-O; details: for Relatively Cell inhibition of vehicle control(%): 786-O;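 for all read-outs here: luminescence read-out after adding CellTiter-Glo reagent, with cells incubated at 37 °C under 5% CO2 during compound exposure, part of a ten cell line synergy study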
# Procedure: as §1, §2, §3, §4, §5, §6, §7, §8, §9, §10, §11
# 6) Read plates in Envision.
# [6] = test system: ovarian cancer line SK-OV3 cells; test: CTG (CellTiter-Glo) cell viability assay, 6×6 combo matrix, 72 h, SK-OV-3; details: SK-OV-3;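 note: luminescent signal read after CellTiter-Glo addition, cells exposed to compounds for 72 h at 37 °C under 5% CO2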
# [7] = test system: kidney cancer line 786-O cells;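 note: luminescence read-out after adding CellTiter-Glo reagent, with cells incubated at 37 °C under 5% CO2 during compound exposure, part of a ten cell line synergy study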
# Procedure: as §1, §2, §3, §4, §5, §6, §7, §8, §9, §10, §11
# 6) Read plates in Envision.
# [8] = test system: colorectal cancer line HT29 cells; test: CTG (CellTiter-Glo) cell viability assay, 6×6 combo matrix, 72 h, HT29; details: for Relatively Cell inhibition of vehicle control(%): HT29;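 for all read-outs here: cells exposed to compounds for 72 hours at 37 °C under 5% CO2, then viability read as luminescence after adding CellTiter-Glo Reagent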
# Procedure: as §1, §2, §3, §4, §5, §6, §7, §8, §9, §10, §11
# 6) Read plates in Envision.
# [9] = test system: glioblastoma line U87MG cells; test: CTG (CellTiter-Glo) cell viability assay, 6×6 combo matrix, 72 h, U87MG; details: Homo sapiens, U-87 MG;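 note: U87MG cells seeded at 2000 per well, exposed 72 h, viability read by CellTiter-Glo luminescence, inhibition expressed relative to vehicle-treated wells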
# [10] = test system: Liver cancer line SK-HEP-1 cells; test: CTG (CellTiter-Glo) cell viability assay, 6×6 combo matrix, 72 h, SK-Hep-1; details: Homo sapiens;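 note: luminescent signal read after 72 h compound exposure at 37 °C under 5% CO2, with medium-only wells serving as blank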
# Procedure: as §1, §2, §3, §4, §5, §6, §7, §8, §9, §10, §11
# 6) Read plates in Envision.
# [11] = test system: breast cancer line T47D cells; test: CTG (CellTiter-Glo) cell viability assay, 6×6 combo matrix, 72 h, T47D; details: Homo sapiens;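 note: luminescence read-out after 72 h at 37 °C under 5% CO2, with medium-only wells as blanks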
# Procedure: as §1, §2, §3, §4, §5, §6, §7, §8, §9, §10, §11
# 6) Read plates in Envision.
# [12] = test system: breast cancer line T47D cells;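 note: luminescence read-out after 72 h at 37 °C under 5% CO2, with medium-only wells as blanks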
# Procedure: as §1, §2, §3, §4, §5, §6, §7, §8, §9, §10, §11
# 6) Read plates in Envision.
# [13] = Tax 8 nM only (myricetin matrix)
# [14] = Tax 40 nM only (myricetin matrix)
# [15] = Tax 200 nM only (myricetin matrix)
# [16] = Tax 1000 nM only (myricetin matrix)
# [17] = Homo sapiens, 786-0, read-out: Relatively Cell inhibition of vehicle control
# [18] = Homo sapiens, HT-29, read-out: Relatively Cell inhibition of vehicle control(%)
compound,measurement,setting,value
"CC(=O)O[C@H]1C(=O)[C@@]2(C)[C@H]([C@H](OC(=O)c3ccccc3)[C@]3(O)C[C@H](OC(=O)[C@H](O)[C@@H](NC(=O)c4ccccc4)c4ccccc4)C(C)=C1C3(C)C)[C@]1(OC(C)=O)CO[C@@H]1C[C@@H]2O [taxol, paclitaxel]",inhibition,[1],0.78%
same,inhibition at […],"[2]; Homo sapiens, CAPAN-1, taxol 1.6 nM only, read-out: Relatively Cell inhibition of vehicle control",17.2%
same,inhibition at 0.008 µM,"[2]; Homo sapiens, CAPAN-1, taxol 8 nM only, read-out: Relatively Cell inhibition of vehicle control",54.3%
same,inhibition at 0.04 µM,"[2]; Homo sapiens, CAPAN-1, taxol 40 nM only, read-out: Relatively Cell inhibition of vehicle control",65.8%
same,inhibition at 0.2 µM,"[2]; Homo sapiens, CAPAN-1, taxol 200 nM only, read-out: Relatively Cell inhibition of vehicle control",65.4%
same,inhibition at 1 µM,"[2]; Homo sapiens, CAPAN-1, taxol 1000 nM only, read-out: Relatively Cell inhibition of vehicle control",67.2%
same,Relatively Cell inhibition of vehicle control(%),[2]; Tax 8 nM only,51.97%
same,Relatively Cell inhibition of vehicle control(%),[2]; Tax 40 nM only,62.89%
same,Relatively Cell inhibition of vehicle control(%),[2]; Tax 200 nM only,63.24%
same,Relatively Cell inhibition of vehicle control(%),[2]; Tax 1000 nM only,64.00%
same,Relatively Cell inhibition of vehicle control(%),[3]; Tax 8 nM only (LB-1 matrix),55.11%
same,Relatively Cell inhibition of vehicle control(%),[3]; [13],53.76%
same,Relatively Cell inhibition of vehicle control(%),[3]; Tax 40 nM only (LB-1 matrix),68.79%
same,Relatively Cell inhibition of vehicle control(%),[3]; [14],68.03%
same,Relatively Cell inhibition of vehicle control(%),[3]; Tax 200 nM only (LB-1 matrix),77.44%
same,Relatively Cell inhibition of vehicle control(%),[3]; [15],75.24%
same,Relatively Cell inhibition of vehicle control(%),[3]; Tax 1000 nM only (LB-1 matrix),76.64%
same,Relatively Cell inhibition of vehicle control(%),[3]; [16],77.27%
same,inhibition at 0.008 µM,"[4]; read-out: Relatively Cell inhibition of vehicle control(%), taxol 8 nM only (LB-1 plate)",54%
same,inhibition at 0.008 µM,"[4]; read-out: Relatively Cell inhibition of vehicle control(%), taxol 8 nM only (myricetin plate)",62.6%
same,inhibition at 0.04 µM,"[4]; read-out: Relatively Cell inhibition of vehicle control(%), taxol 40 nM only (LB-1 plate)",59.2%
same,inhibition at 0.04 µM,"[4]; read-out: Relatively Cell inhibition of vehicle control(%), taxol 40 nM only (myricetin plate)",65.5%
same,inhibition at 0.2 µM,"[4]; read-out: Relatively Cell inhibition of vehicle control(%), taxol 200 nM only (LB-1 plate)",56.4%
same,inhibition at 0.2 µM,"[4]; read-out: Relatively Cell inhibition of vehicle control(%), taxol 200 nM only (myricetin plate)",62.2%
same,inhibition at 1 µM,"[4]; read-out: Relatively Cell inhibition of vehicle control(%), taxol 1000 nM only (LB-1 plate)",48.8%
same,inhibition at 1 µM,"[4]; read-out: Relatively Cell inhibition of vehicle control(%), taxol 1000 nM only (myricetin plate)",55.6%
same,inhibition at 0.008 µM,[5]; [17],12.2%
same,inhibition at 0.04 µM,[5]; [17],42.6%
same,inhibition at 0.2 µM,[5]; [17],70%
same,inhibition at 1 µM,[5]; [17],74.1%
same,Relatively Cell inhibition of vehicle control(%),[5]; Tax 8 nM only (LB-1 0),12.57%
same,Relatively Cell inhibition of vehicle control(%),[5]; Tax 40 nM only (LB-1 0),43.18%
same,Relatively Cell inhibition of vehicle control(%),[5]; Tax 200 nM only (LB-1 0),69.53%
same,Relatively Cell inhibition of vehicle control(%),[5]; Tax 1000 nM only (LB-1 0),73.05%
same,Relatively Cell inhibition of vehicle control(%),[6]; Tax 8 nM only (LB-1 matrix),41.59%
same,Relatively Cell inhibition of vehicle control(%),[6]; [13],39.88%
same,Relatively Cell inhibition of vehicle control(%),[6]; Tax 40 nM only (LB-1 matrix),54.31%
same,Relatively Cell inhibition of vehicle control(%),[6]; [14],52.55%
same,Relatively Cell inhibition of vehicle control(%),[6]; Tax 200 nM only (LB-1 matrix),71.38%
same,Relatively Cell inhibition of vehicle control(%),[6]; [15],68.68%
same,Relatively Cell inhibition of vehicle control(%),[6]; Tax 1000 nM only (LB-1 matrix),76.39%
same,Relatively Cell inhibition of vehicle control(%),[6]; [16],73.38%
same,inhibition,[7],3.15%
same,inhibition at 0.008 µM,[8]; [18],67.9%
same,inhibition at 0.04 µM,[8]; [18],83.4%
same,inhibition at 0.2 µM,[8]; [18],83.1%
same,inhibition at 1 µM,[8]; [18],82%
same,Relatively Cell inhibition of vehicle control(%),[8]; Tax 8 nM only (Myr 0),73.73%
same,Relatively Cell inhibition of vehicle control(%),[8]; Tax 40 nM only (Myr 0),80.46%
same,Relatively Cell inhibition of vehicle control(%),[8]; Tax 200 nM only (Myr 0),81.35%
same,Relatively Cell inhibition of vehicle control(%),[8]; Tax 1000 nM only (Myr 0),79.03%
same,inhibition at 0.008 µM,"[9]; 72 h, read-out: Relatively Cell inhibition of vehicle control(%), U87MG, 8 nM taxol only (LB-1 0), 72 h",42.7%
same,inhibition at 0.04 µM,"[9]; 72 h, read-out: Relatively Cell inhibition of vehicle control(%), U87MG, 40 nM taxol only (LB-1 0), 72 h",53.9%
same,inhibition at 0.2 µM,"[9]; 72 h, read-out: Relatively Cell inhibition of vehicle control(%), U87MG, 200 nM taxol only (LB-1 0), 72 h",67.8%
same,inhibition at 1 µM,"[9]; 72 h, read-out: Relatively Cell inhibition of vehicle control(%), U87MG, 1000 nM taxol only (LB-1 0), 72 h",66.2%
same,inhibition at 0.008 µM,"[9]; read-out: Relatively Cell inhibition of vehicle control(%), taxol 8 nM only",46.5%
same,inhibition at 0.04 µM,"[9]; read-out: Relatively Cell inhibition of vehicle control(%), taxol 40 nM only",60.6%
same,inhibition at 0.2 µM,"[9]; read-out: Relatively Cell inhibition of vehicle control(%), taxol 200 nM only",72.2%
same,inhibition at 1 µM,"[9]; read-out: Relatively Cell inhibition of vehicle control(%), taxol 1000 nM only",69.8%
same,inhibition at 0.008 µM,"[10]; SK-HEP1, read-out: Relatively Cell inhibition of vehicle control, taxol 8 nM only (LB-1 table)",30.6%
same,inhibition at 0.008 µM,"[10]; SK-HEP1, read-out: Relatively Cell inhibition of vehicle control, taxol 8 nM only (myricetin table)",36%
same,inhibition at 0.04 µM,"[10]; SK-HEP1, read-out: Relatively Cell inhibition of vehicle control, taxol 40 nM only (LB-1 table)",59.5%
same,inhibition at 0.04 µM,"[10]; SK-HEP1, read-out: Relatively Cell inhibition of vehicle control, taxol 40 nM only (myricetin table)",62.4%
same,inhibition at 0.2 µM,"[10]; SK-HEP1, read-out: Relatively Cell inhibition of vehicle control, taxol 200 nM only (LB-1 table)",68.8%
same,inhibition at 0.2 µM,"[10]; SK-HEP1, read-out: Relatively Cell inhibition of vehicle control, taxol 200 nM only (myricetin table)",65.2%
same,inhibition at 1 µM,"[10]; SK-HEP1, read-out: Relatively Cell inhibition of vehicle control, taxol 1000 nM only (LB-1 table)",78%
same,inhibition at 1 µM,"[10]; SK-HEP1, read-out: Relatively Cell inhibition of vehicle control, taxol 1000 nM only (myricetin table)",78.8%
same,inhibition at 0.008 µM,"[11]; read-out: Relatively Cell inhibition of vehicle control(%), T47D, 8 nM taxol only (LB-1 0)",33.2%
same,inhibition at 0.008 µM,"[11]; read-out: Relatively Cell inhibition of vehicle control(%), T47D, 8 nM taxol only (myricetin 0)",40.8%
same,inhibition at 0.04 µM,"[11]; read-out: Relatively Cell inhibition of vehicle control(%), T47D, 40 nM taxol only (LB-1 0)",42.2%
same,inhibition at 0.04 µM,"[11]; read-out: Relatively Cell inhibition of vehicle control(%), T47D, 40 nM taxol only (myricetin 0)",48.6%
same,inhibition at 0.2 µM,"[11]; read-out: Relatively Cell inhibition of vehicle control(%), T47D, 200 nM taxol only (LB-1 0)",42%
same,inhibition at 0.2 µM,"[11]; read-out: Relatively Cell inhibition of vehicle control(%), T47D, 200 nM taxol only (myricetin 0)",48.5%
same,inhibition at 1 µM,"[11]; read-out: Relatively Cell inhibition of vehicle control(%), T47D, 1000 nM taxol only (LB-1 0)",38%
same,inhibition at 1 µM,"[11]; read-out: Relatively Cell inhibition of vehicle control(%), T47D, 1000 nM taxol only (myricetin 0)",45.8%
same,inhibition,[12],17%
